Data published in US11040981B2, “Pyrrolotriazine compounds and methods of inhibiting TAM kinases” (Syros Pharmaceuticals, Inc., priority 2017, dated 2021).

Tests used:
FLT3 = target: T1, FLT3 (Homo sapiens, UniProt P36888); test: TR-FRET kinase activity assay, FLT3; format: biochemical; conditions: ATP at Km, 60 minutes
T1 sequence (P36888 27-993): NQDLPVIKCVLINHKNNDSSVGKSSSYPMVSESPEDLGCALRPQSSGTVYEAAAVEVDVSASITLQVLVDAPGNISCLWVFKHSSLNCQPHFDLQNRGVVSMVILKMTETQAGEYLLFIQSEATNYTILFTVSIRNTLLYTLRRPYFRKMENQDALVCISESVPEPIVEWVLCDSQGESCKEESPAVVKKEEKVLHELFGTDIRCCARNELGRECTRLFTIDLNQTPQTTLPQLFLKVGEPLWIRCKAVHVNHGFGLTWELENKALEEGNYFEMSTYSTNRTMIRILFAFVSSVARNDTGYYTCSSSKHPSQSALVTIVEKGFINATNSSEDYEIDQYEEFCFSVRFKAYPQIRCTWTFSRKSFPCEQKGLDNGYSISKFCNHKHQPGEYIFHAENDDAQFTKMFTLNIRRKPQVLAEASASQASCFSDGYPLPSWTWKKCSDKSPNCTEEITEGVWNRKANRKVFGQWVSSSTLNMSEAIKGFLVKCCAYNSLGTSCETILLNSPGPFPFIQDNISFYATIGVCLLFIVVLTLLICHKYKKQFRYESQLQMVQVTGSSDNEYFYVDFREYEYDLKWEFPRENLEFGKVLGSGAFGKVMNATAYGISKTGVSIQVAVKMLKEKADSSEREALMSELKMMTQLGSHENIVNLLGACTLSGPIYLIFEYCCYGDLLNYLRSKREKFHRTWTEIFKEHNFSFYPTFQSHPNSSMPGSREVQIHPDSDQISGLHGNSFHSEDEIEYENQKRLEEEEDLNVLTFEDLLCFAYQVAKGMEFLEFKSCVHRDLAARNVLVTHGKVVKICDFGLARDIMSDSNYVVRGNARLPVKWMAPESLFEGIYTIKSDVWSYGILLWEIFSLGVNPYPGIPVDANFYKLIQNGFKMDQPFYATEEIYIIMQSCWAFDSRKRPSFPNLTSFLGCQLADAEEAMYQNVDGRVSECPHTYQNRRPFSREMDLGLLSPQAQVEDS
Outline: (§1)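 IC50 reflects the drop in TR-FRET between Eu anti-phosphotyrosine antibody and labelled peptide after a 60-minute room-temperature reaction. Buffer was 50 mM HEPES pH 7.5 with 10 mM MgCl2, 1 mM EGTA, 0.01% Brij 35 and 1 mM DTT, with ATP at Km per enzyme and EDTA quench.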

AXL = target: T2, AXL (Homo sapiens, UniProt P30530); test: TR-FRET kinase activity assay, AXL; format: biochemical; conditions: ATP at Km, 60 minutes
T2 sequence (P30530 26-894): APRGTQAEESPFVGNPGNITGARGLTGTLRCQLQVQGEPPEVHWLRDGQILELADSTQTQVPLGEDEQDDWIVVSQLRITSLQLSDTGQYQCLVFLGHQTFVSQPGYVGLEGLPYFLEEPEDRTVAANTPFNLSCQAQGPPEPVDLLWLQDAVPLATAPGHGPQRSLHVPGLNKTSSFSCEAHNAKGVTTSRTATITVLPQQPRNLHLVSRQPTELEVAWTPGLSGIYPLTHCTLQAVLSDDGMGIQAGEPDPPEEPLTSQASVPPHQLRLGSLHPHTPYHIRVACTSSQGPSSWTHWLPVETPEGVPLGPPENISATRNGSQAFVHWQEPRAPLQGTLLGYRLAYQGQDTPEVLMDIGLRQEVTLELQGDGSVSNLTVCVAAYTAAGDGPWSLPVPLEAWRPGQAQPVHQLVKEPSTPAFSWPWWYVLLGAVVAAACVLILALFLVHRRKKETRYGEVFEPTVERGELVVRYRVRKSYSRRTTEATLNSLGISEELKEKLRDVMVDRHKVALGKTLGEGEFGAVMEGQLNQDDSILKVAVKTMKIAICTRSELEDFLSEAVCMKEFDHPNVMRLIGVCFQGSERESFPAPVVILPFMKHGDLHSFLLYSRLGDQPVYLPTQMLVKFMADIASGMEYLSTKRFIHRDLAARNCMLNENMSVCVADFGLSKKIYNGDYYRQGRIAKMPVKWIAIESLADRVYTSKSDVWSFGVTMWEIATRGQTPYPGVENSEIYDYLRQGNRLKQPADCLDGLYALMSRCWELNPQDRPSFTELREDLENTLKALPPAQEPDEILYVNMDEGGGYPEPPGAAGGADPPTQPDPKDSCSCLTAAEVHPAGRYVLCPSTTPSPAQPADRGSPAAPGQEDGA
Outline: as §1

| Compound | IC50 (FLT3) [nM] | IC50 (AXL) [nM] |
| --- | --- | --- |
| [2H]C([2H])([2H])OCC(C)Nc1ncc2c(-c3cnn(C4COC4)c3)cc(C3CCC(O)CC3)n2n1 (stereo not drawn) [Compound 630] | 100 to 1000 | ≤ 100 |
| COC[C@H](C)Nc1ncc2c(-c3cnn(C4COC4)c3)cc([C@H]3CC[C@H](O)C(F)(F)C3)n2n1 [Compound 614] | 100 to 1000 | ≤ 100 |
| C[C@@H](CC(F)(F)F)Nc1ncc2c(-c3cnn(C(C)(C)C(=O)C4COC4)c3)cc([C@H]3CC[C@@](C)(O)CC3)n2n1 [Compound 609] | ≤ 100 | ≤ 100 |

Next, values leading:

| IC50 (FLT3) [nM] | IC50 (AXL) [nM] | Compound |
| --- | --- | --- |
| 100 to 1000 | 100 to 1000 | CCCCC[C@H](C)Nc1ncc2c(-c3ccc(S(=O)(=O)N4CCOCC4)cc3)cc([C@H]3CC[C@H](O)CC3)n2n1 [Compound 102, (1S,4r)-4-(2-((S)-heptan-2-ylamino)-5-(4-(morpholinosulfonyl)phenyl)pyrrolo[2,1-f][1,2,4]triazin-7-yl)cyclohexanol] |
| ≤ 100 | ≤ 100 | COC[C@H](C)Nc1ncc2c(-c3ccc(C4(C(=O)N5CCOCC5)CC4)cc3)cc([C@H]3CC[C@H](O)CC3)n2n1 [Compound 171] |
| ≤ 100 | 100 to 1000 | COCC(C)Nc1ncc2c(-c3ccc(C(C)N4CCOCC4)cc3)cc(C3CCC(O)CC3)n2n1 (stereo not drawn) [Compound 181] |
